The target of the test is T1, Cloned Human Serotonin Receptor, Subtype 7 (h5HT7) (Homo sapiens, UniProt P34969).
T1 construct: purchased PerkinElmer 6120512; host or cells: CHO cells (membranes coated on Basic FlashPlate SMP200)
Nature of the test: Radioligand binding assay, cloned human serotonin receptor subtype 7 (h5HT7) expressed in CHO cells, [125I]LSD, Flashplate. The settings on record: radioligand [125I]LSD 0.82 nM, room temperature, 240 minutes, triplicate determinations, read-out: 5-HT7 IC-50. The method, then:
Biological Assays Radioligand Binding
Radioligand binding assays were performed using the Cloned Human Serotonin Receptor, Subtype 7 (h5HT7), expressed in CHO cells, coated on Flashplate (Basic FlashPlate Cat.: SMP200) from PerkinElmer (Cat.: 6120512). The protocol assay was essentially the recommended protocol in the Technical Data Sheet by PerkinEmer Life and Analytical Sciences. The Mass membrane protein/well was typically 12 μg and the Receptor/well was about 9-10 fmoles. The Flashplate were let equilibrate at room temperature for one hour before the addition of the components of the assay mixture. The binding buffer was: 50 mM Tris-HCl, pH 7.4, containing 10 mM MgCl2, 0.5 mM EDTA and 0.5% BSA. The radioligand was [^125I]LSD at a final concentration of 0.82 nM. Nonspecific binding was determined with 50 μM of Clozapine. The assay volume was 25 μl. TopSeal-A were applied onto Flashplate microplates and they were incubated at room temperature for 240 minutes in darkness. The radioactivity were quantified by liquid scintillation spectrophotometry (Wallac 1450 Microbeta Trilux) with a count delay of 4 minutes prior to counting and a counting time of 30 seconds per well. Competition binding data were analyzed by using the LIGAND program (Munson and Rodbard, LIGAND: A versatile, computerized approach for characterization of ligand-binding systems. Anal. Biochem. 107: 220-239, 1980) and assays were performed in triplicate determinations for each point.

Structures can show the parent of a compound that is named as a salt.

T1 sequence (P34969 whole entry): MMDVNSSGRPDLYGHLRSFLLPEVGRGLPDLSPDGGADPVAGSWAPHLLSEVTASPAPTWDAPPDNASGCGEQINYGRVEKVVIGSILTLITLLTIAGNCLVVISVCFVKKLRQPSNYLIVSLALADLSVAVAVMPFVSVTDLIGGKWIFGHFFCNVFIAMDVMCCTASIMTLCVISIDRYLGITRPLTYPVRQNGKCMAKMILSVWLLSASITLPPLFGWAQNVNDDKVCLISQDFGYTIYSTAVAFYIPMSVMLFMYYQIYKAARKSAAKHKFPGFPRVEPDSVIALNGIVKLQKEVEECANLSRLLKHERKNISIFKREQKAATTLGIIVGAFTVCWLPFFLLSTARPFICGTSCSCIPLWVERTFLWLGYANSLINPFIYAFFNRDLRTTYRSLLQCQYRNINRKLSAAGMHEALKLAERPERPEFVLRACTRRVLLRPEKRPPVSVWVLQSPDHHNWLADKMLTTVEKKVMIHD

Consider `Cc1cc(S(=O)(=O)N2CCC(CN3CCc4ccccc4C3)CC2)c(C)cc1Cl` [Compound 16, 2-[1-(4-Chloro-2,5-dimethyl-benzenesulfonyl)-piperidin-4-ylmethyl]-1,2,3,4-tetrahydroisoquinoline hydrochloride], for which the IC50 stood at 36.1 ± 16 nM.
Then `O=S(=O)(c1ccccc1Cl)N1CCC(CN2CCc3ccccc3C2)CC1` [Compound 2, 2-[1-(2-Chloro-benzenesulfonyl)-piperidin-4-ylmethyl]-1,2,3,4-tetrahydro-isoquinoline hydrochloride], with 28.4 ± 18.2 nM; and `O=S(=O)(c1ccccc1Br)N1CCC(CN2CCc3ccccc3C2)CC1` [Compound 22, 2-[1-(2-Bromo-benzenesulfonyl)-piperidin-4-ylmethyl]-1,2,3,4-tetrahydro-isoquinoline hydrochloride], with 16.8 ± 8 nM; and `O=S(=O)(c1cc(Cl)c(F)cc1F)N1CCC(CN2CCc3ccccc3C2)CC1` [Compound 1, 2-[1-(5-Chloro-2,4-difluoro-benzenesulfonyl)-piperidin-4-ylmethyl]-1,2,3,4-tetrahydroisoquinoline hydrochloride], with 70.2 nM.
In the case of `O=S(=O)(c1cc(Cl)ccc1Cl)N1CCC(CN2CCc3ccccc3C2)CC1` [Compound 3, 2-[1-(2,5-Dichloro-benzenesulfonyl)-piperidin-4-ylmethyl]-1,2,3,4-tetrahydro-isoquinoline hydrochloride], the IC50 came to 76.4 nM.
With `COc1cc2c(cc1OC)CN(CC1CCN(S(=O)(=O)c3cc(Cl)ccc3Cl)CC1)CC2` [Compound 85, 2-[1-(2,5-Dichloro-benzenesulfonyl)-piperidin-4-ylmethyl]-6,7-dimethoxy-1,2,3,4-tetrahydro-isoquinoline hydrochloride], the IC50 amounted to 60.7 nM.
Consider `O=S(=O)(c1cc(F)c(F)cc1Cl)N1CCC(CN2CCc3ccccc3C2)CC1` [Compound 6, 2-[1-(2-Chloro-4,5-difluoro-benzene-sulfonyl)-piperidin-4-ylmethyl]-1,2,3,4-tetrahydroisoquinoline hydrochloride], for which the IC50 turned out to be 18.2 ± 3.7 nM.
As for `COc1cc2c(cc1OC)CN(CC1CCN(S(=O)(=O)c3ccccc3Cl)CC1)CC2` [Compound 77, 2-[1-(2-Chlorobenzene-sulfonyl)-piperidin-4-ylmethyl]-6,7-dimethoxy-1,2,3,4-tetrahydroisoquinoline hydrochloride], the figure is 41.8 nM; as for `Cc1cccc(S(=O)(=O)N2CCC(CN3CCc4ccccc4C3)CC2)c1` [Compound 5, 2-[1-(Toluene-3-sulfonyl)-piperidin-4-ylmethyl]-1,2,3,4-tetrahydroisoquinoline hydrochloride], 63 nM; as for `O=S(=O)(c1cccc2ccccc12)N1CCC(CN2CCc3ccccc3C2)CC1` [Compound 23, 2-[1-(Naphtalene-1-sulfonyl)-piperidin-4-ylmethyl]-1,2,3,4-tetrahydroisoquinoline hydrochloride], 83.4 nM.

The values above are taken from patent US7928121B2, “5-HT7 receptor antagonists” (Laboratorios Del Dr. Esteve, S.A., priority 2004, dated 2011).
